The source of these data is patent US20120115724A1, “METHOD OF CONTROLLING UNDESIRED VEGETATION” (SYNGENTA CROP PROTECTION LLC, priority 2009, published 2012).

Type in all cases: in vivo
The test system of assay [1] is POLCO Polygonum convolvulus. The assay is described as follows: Post-emergence crop and weed test (Example 15). As to conditions: Fallopia convolvulus, 360 h, after 15 days, read-out: Percentage damage POLCO. Summed up:
(§1)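 Plants grown 14 days in glasshouse pots (22/16 °C day/night, 16 h light, 65% humidity) were sprayed post-emergence with compound formulated as a 5% stock in acetone/Emulsogen EL/NMP/DPG-monoethyl ether, diluted in water with 0.2% X-77. Damage was scored after 15 days (0 = none, 100 = total).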

In assay [2] the test system is EPHHL Euphorbia heterophylla. Nature of the assay: Post-emergence crop and weed test (Example 15). As to conditions: 360 h, after 15 days, read-out: Percentage damage EPHHL. In short, it runs like this: as §1
Assay [3] deals with AMARE Amaranthus retroflexus. The assay is described as follows: Post-emergence crop and weed test (Example 15). Conditions: 360 h, after 15 days, read-out: Percentage damage AMARE. Summed up: as §1
The test system of another assay is CHEAL Chenopodium album. The assay is described as follows: Post-emergence crop and weed test (Example 15). As to conditions: 360 h, after 15 days, read-out: Percentage damage CHEAL. In short, it runs like this: as §1
A further assay has as its system GALAP Galium aparine. Nature of the assay: Post-emergence crop and weed test (Example 15). Conditions: 360 h, after 15 days, read-out: Percentage damage GALAP. Summed up:
as §1

The test system of another assay is GLXMA Soybean. The assay is described as follows: Post-emergence crop and weed test (Example 15). As to conditions: Glycine max, 360 h, after 15 days, read-out: Percentage damage GLXMA. Summed up:
as §1

The test system of assay [4] is XANST Xanthium strumarium. The assay is described as follows: Post-emergence crop and weed test (Example 15). As to conditions: 360 h, after 15 days, read-out: Percentage damage XANST. Summed up: as §1
In the next assay the test system is SINAR Sinapis arvensis. Nature of the assay: Post-emergence crop and weed test (Example 15). Conditions: Mutarda arvensis, 360 h, after 15 days, read-out: Percentage damage SINAR. Summed up: as §1
The test system of another assay is IPOHE Ipomoea hederacea. The assay is described as follows: Post-emergence crop and weed test (Example 15). As to conditions: 360 h, after 15 days, read-out: Percentage damage IPOHE. In short, it runs like this:
as §1

For a further assay, the system named is VERPE Veronica persica. The assay is described as follows: Post-emergence crop and weed test (Example 15). As to conditions: 360 h, after 15 days, read-out: Percentage damage VERPE. In short, it runs like this: as §1
The test system of assay [5] is KCHSC Kochia scoparia. The assay is described as follows: Post-emergence crop and weed test (Example 15). As to conditions: Bassia scoparia, 360 h, after 15 days, read-out: Percentage damage KCHSC. Summed up:
as §1

The next assay deals with SIDSP Sida spinosa. Nature of the assay: Post-emergence crop and weed test (Example 15). Conditions: 360 h, after 15 days, read-out: Percentage damage SIDSP. Summed up: as §1
In assay [6] the test system is ABUTH Abutilon theophrasti. Nature of the assay: Post-emergence crop and weed test (Example 15). As to conditions: 360 h, after 15 days, read-out: Percentage damage ABUTH. Summed up: as §1
The test system of assay [7] is KCHSC Kochia scoparia. The assay is described as follows: Pre-emergence crop and weed test (Example 16). As to conditions: after 20 days.
For assay [8], the system named is Amaranthus retroflexus (AMARE). The assay is described as follows: Pre-emergence biological efficacy (Example 13). Conditions: Amaranthus retroflexus, 312 h; pre-emergence, 1,000 g/ha, after 13 days; read-out: Percentage damage AMARE. Summed up: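 Seeds sown in standard soil in pots, kept one day in a glasshouse (24/16 °C day/night, 14 h light, 65% humidity), then sprayed with aqueous solution from acetone/water (50:50) with 0.5% Tween 20 at 250 or 1000 g/ha. Damage scored after 13 days (0 = none, 100 = total).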

With `C/C=C/c1c(N)nc(-c2ccc(Cl)c(OC)c2F)nc1C(=O)OC` [Compound 3, (E)-4-Amino-2-(4-chloro-2-fluoro-3-methoxy-phenyl)-6-methoxy-carbonyl-5-(prop-1-enyl)-pyrimidine], the pest or weed control at 125 g/ha in assay [1] (125 g/ha) came out at 90%; in [2] (125 g/ha) it was 90%; in assay [3] (125 g/ha) it was 100%; in the assay on CHEAL Chenopodium album (125 g/ha), 90%; in the assay on GALAP Galium aparine (125 g/ha), 70%; in assay [4] (125 g/ha), 80%. Further, the pest or weed control at 125 g/ha in the assay with SINAR Sinapis arvensis (125 g/ha) amounted to 70%; in the assay with IPOHE Ipomoea hederacea (125 g/ha), 80%; in the assay with VERPE Veronica persica (125 g/ha) it was 80%; in the assay with KCHSC Kochia scoparia [5] (125 g/ha), 80%; in the assay on SIDSP Sida spinosa (125 g/ha), 80%; in assay [6] (125 g/ha) it was 80%. The plant injury at 125 g/ha with GLXMA Soybean (125 g/ha) was 0%. Also, the “Percentage damage KCHSC” value with KCHSC Kochia scoparia [7] (30 g/ha) stood at 100%. In addition, the pest or weed control at 1000 g/ha in assay [8] came out at 50%.
As for `C/C=C\c1c(N)nc(-c2ccc(Cl)c(OC)c2F)nc1C(=O)OC` [Compound 4, (Z)-4-Amino-2-(4-chloro-2-fluoro-3-methoxy-phenyl)-6-methoxy-carbonyl-5-(prop-1-enyl)-pyrimidine], the pest or weed control at 8 g/ha in assay [1] (8 g/ha) was determined as 70%; in assay [2] (8 g/ha), 90%; in assay [3] (8 g/ha), 80%; with GALAP Galium aparine (8 g/ha), 30%; in assay [4] (8 g/ha), 90%; in the assay with SINAR Sinapis arvensis (8 g/ha), 60%. For the same compound, the pest or weed control at 8 g/ha stood at 70% with IPOHE Ipomoea hederacea (8 g/ha); 80% in the assay with VERPE Veronica persica (8 g/ha); 30% with KCHSC Kochia scoparia [5] (8 g/ha); 50% with SIDSP Sida spinosa (8 g/ha); 60% in [6] (8 g/ha). For the same compound, in the assay with GLXMA Soybean (8 g/ha), the plant injury at 8 g/ha was 20%. In addition, in [8], the pest or weed control at 1000 g/ha came to 100%.
For `C/C=C\c1c(N)nc(-c2ccc(Cl)c(N(C)C)c2F)nc1C(=O)OC` [Compound 5, (Z)-4-Amino-2-(4-chloro-3-dimethylamino-2-fluorophenyl)-6-methoxy-carbonyl-5-(prop-1-enyl)-pyrimidine], the pest or weed control at 30 g/ha was 90% in assay [1] (30 g/ha); 60% in assay [2] (30 g/ha); 90% in assay [3] (30 g/ha); 80% in the assay on CHEAL Chenopodium album (30 g/ha); 70% in assay [4] (30 g/ha); 80% with SINAR Sinapis arvensis (30 g/ha). In addition, the pest or weed control at 30 g/ha was found to be 0% in the assay with IPOHE Ipomoea hederacea (30 g/ha); 60% in the assay on VERPE Veronica persica (30 g/ha); 70% with KCHSC Kochia scoparia [5] (30 g/ha); 0% in the assay with SIDSP Sida spinosa (30 g/ha); 40% in assay [6] (30 g/ha). Besides, the plant injury at 30 g/ha in the assay on GLXMA Soybean (30 g/ha) came out at 0%. In addition, the “Percentage damage KCHSC” value with KCHSC Kochia scoparia [7] (125 g/ha) is listed as 30%. For the same compound, the pest or weed control at 1000 g/ha in assay [8] came out at 70%.
